Experimental data as given in PubChem BioAssay (NCI).
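Step 1: Grow cells in 96-well plates. Step 2: Expose to compound for 48 hours at 5 concentrations. Step 3: Interpolate endpoints linearly; if unreached, use highest concentration. Here, GI50 denotes the concentration required for 50% inhibition of growth. TGI is the concentration that stops growth completely.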

Tests used:
Experiment in all cases: DTP human tumour cell line panel, 48 h
[1] = test system: SK-MEL-5 melanoma
[2] = test system: OVCAR-5 ovarian
[3] = test system: NCI-H460 lung
[4] = test system: SN12C renal
[5] = test system: 786-0 renal
[6] = test system: OVCAR-4 ovarian
[7] = test system: SF-539 CNS
[8] = test system: NCI/ADR-RES ovarian
[9] = test system: HL-60(TB) leukemia
[10] = test system: K-562 leukemia
[11] = test system: KM12 colon
[12] = test system: HCT-15 colon
[13] = test system: OVCAR-8 ovarian
[14] = test system: OVCAR-3 ovarian
[15] = test system: SK-MEL-2 melanoma
[16] = test system: TK-10 renal
[17] = test system: HOP-92 NSCLC
[18] = test system: ACHN renal
[19] = test system: MDA-MB-231 breast
[20] = test system: RPMI-8226 leukemia
[21] = test system: SK-MEL-28 melanoma
[22] = test system: HCC-2998 colon
[23] = test system: SF-268 CNS
[24] = test system: MCF7 breast
[25] = test system: MDA-MB-435
[26] = test system: DU-145 prostate
[27] = test system: UO-31 renal
[28] = test system: COLO 205 colon
[29] = test system: UACC-257 melanoma
[30] = test system: HOP-62 NSCLC
[31] = test system: LOX IMVI melanoma
[32] = test system: A549 NSCLC
[33] = test system: CAKI-1 renal
[34] = test system: MALME-3M melanoma
[35] = test system: SW-620 colon
[36] = test system: RXF 393 renal
[37] = test system: EKVX NSCLC
[38] = test system: HT29 colon
[39] = test system: T-47D breast
[40] = test system: U251 CNS
[41] = test system: BT-549 breast
[42] = test system: HS 578T breast
[43] = test system: PC-3 prostate
[44] = test system: NCI-H226 lung
[45] = test system: HCT-116 colon
[46] = test system: IGROV1 ovarian
[47] = test system: NCI-H23 lung
[48] = test system: SNB-75 CNS
[49] = test system: SF-295 CNS
[50] = test system: CCRF-CEM leukemia
[51] = test system: M14 melanoma
[52] = test system: SR leukemia
[53] = test system: SNB-19 CNS
[54] = test system: SK-OV-3 ovarian
[55] = test system: NCI-H522 lung
[56] = test system: A498 renal
[57] = test system: UACC-62 melanoma
[58] = test system: MOLT-4 leukemia
[59] = test system: MDA-N

Q: For `CCN1CCN(C(=O)[C@@]2(C)CC[C@]3(C)CC[C@]4(C)C(=CC(=O)[C@@H]5[C@@]6(C)CC[C@H](OC7C[C@@H](O)[C@@H](O)C(C)O7)C(C)(C)[C@@H]6CC[C@]54C)[C@@H]3C2)CC1` (some centres not stated), which GI50 [1] is on record?
A: 1.56 µM

Q: What about the TGI [1] of the same molecule?
A: 4.6 µM

Q: What about the GI50 [2] of the same molecule?
A: 1.19 µM

Q: And the TGI [2]?
A: 3.12 µM

Q: What about the GI50 [3] of the same molecule?
A: 0.948 µM

Q: What about the TGI [3] of the same molecule?
A: 1.86 µM

Q: What about the GI50 [4] of the same molecule?
A: 0.896 µM

Q: What about the TGI [4] of the same molecule?
A: 1.83 µM

Q: What about the GI50 [5] of the same molecule?
A: 0.933 µM

Q: What about the TGI [5] of the same molecule?
A: 1.82 µM

Q: What about the GI50 [6] of the same molecule?
A: 1.27 µM

Q: And the TGI [6]?
A: 3.08 µM

Q: And the GI50 [7]?
A: 0.937 µM

Q: And the TGI [7]?
A: 1.85 µM

Q: What about the GI50 [8] of the same molecule?
A: 2.53 µM

Q: And the TGI [8]?
A: 12.9 µM

Q: And the GI50 [9]?
A: 0.939 µM

Q: What about the TGI [9] of the same molecule?
A: 1.91 µM

Q: What about the GI50 [10] of the same molecule?
A: 1.08 µM

Q: And the TGI [10]?
A: 2.66 µM

Q: And the GI50 [11]?
A: 2.74 µM

Q: What about the TGI [11] of the same molecule?
A: 9.95 µM

Q: And the GI50 [12]?
A: 2.21 µM

Q: What about the TGI [12] of the same molecule?
A: 8.67 µM

Q: What about the GI50 [13] of the same molecule?
A: 1.62 µM

Q: And the TGI [13]?
A: 6.82 µM

Q: And the GI50 [14]?
A: 8.75 µM

Q: What about the TGI [14] of the same molecule?
A: 16.7 µM

Q: And the GI50 [15]?
A: 8.95 µM

Q: What about the TGI [15] of the same molecule?
A: 17.9 µM

Q: And the GI50 [16]?
A: 0.806 µM

Q: And the TGI [16]?
A: 1.9 µM

Q: And the GI50 [17]?
A: 5.25 µM

Q: And the TGI [17]?
A: 12.5 µM

Q: What about the GI50 [18] of the same molecule?
A: 0.91 µM

Q: What about the TGI [18] of the same molecule?
A: 1.69 µM

Q: What about the GI50 [19] of the same molecule?
A: 1.13 µM

Q: What about the TGI [19] of the same molecule?
A: 2.59 µM

Q: What about the GI50 [20] of the same molecule?
A: 1.09 µM

Q: What about the TGI [20] of the same molecule?
A: 2.52 µM

Q: What about the GI50 [21] of the same molecule?
A: 1.06 µM

Q: What about the TGI [21] of the same molecule?
A: 2.25 µM

Q: What about the GI50 [22] of the same molecule?
A: 2.26 µM

Q: What about the TGI [22] of the same molecule?
A: 8.94 µM

Q: What about the GI50 [23] of the same molecule?
A: 1.6 µM

Q: And the TGI [23]?
A: 6.18 µM

Q: And the GI50 [24]?
A: 1.79 µM

Q: And the TGI [24]?
A: 7.54 µM

Q: And the GI50 [25]?
A: 2.26 µM

Q: What about the TGI [25] of the same molecule?
A: 8.19 µM

Q: And the GI50 [26]?
A: 8.71 µM

Q: What about the TGI [26] of the same molecule?
A: 16.3 µM

Q: And the GI50 [27]?
A: 0.757 µM

Q: And the TGI [27]?
A: 1.53 µM

Q: What about the GI50 [28] of the same molecule?
A: 9.13 µM

Q: And the TGI [28]?
A: 20.6 µM

Q: And the GI50 [29]?
A: 1.65 µM

Q: What about the TGI [29] of the same molecule?
A: 6.52 µM

Q: What about the GI50 [30] of the same molecule?
A: 2.39 µM

Q: And the TGI [30]?
A: 10.8 µM

Q: What about the GI50 [31] of the same molecule?
A: 1.01 µM

Q: And the TGI [31]?
A: 2 µM

Q: And the GI50 [32]?
A: 1.76 µM

Q: What about the TGI [32] of the same molecule?
A: 8.94 µM

Q: What about the GI50 [33] of the same molecule?
A: 7.81 µM

Q: And the TGI [33]?
A: 14.8 µM

Q: What about the GI50 [34] of the same molecule?
A: 0.917 µM

Q: And the TGI [34]?
A: 2.05 µM

Q: What about the GI50 [35] of the same molecule?
A: 1.7 µM

Q: What about the TGI [35] of the same molecule?
A: 6.36 µM

Q: And the GI50 [36]?
A: 3.73 µM

Q: And the TGI [36]?
A: 11.5 µM

Q: And the GI50 [37]?
A: 3.51 µM

Q: What about the TGI [37] of the same molecule?
A: 10.4 µM

Q: What about the GI50 [38] of the same molecule?
A: 1.08 µM

Q: And the TGI [38]?
A: 2.59 µM

Q: And the GI50 [39]?
A: 9.57 µM

Q: What about the TGI [39] of the same molecule?
A: 23.1 µM

Q: And the GI50 [40]?
A: 1.52 µM

Q: What about the TGI [40] of the same molecule?
A: 5.68 µM

Q: What about the GI50 [41] of the same molecule?
A: 5.84 µM

Q: What about the TGI [41] of the same molecule?
A: 13 µM

Q: And the GI50 [42]?
A: 7.52 µM

Q: What about the TGI [42] of the same molecule?
A: 17.8 µM

Q: What about the GI50 [43] of the same molecule?
A: 2.47 µM

Q: And the TGI [43]?
A: 9.02 µM

Q: What about the GI50 [44] of the same molecule?
A: 10.3 µM

Q: And the TGI [44]?
A: 21.3 µM

Q: And the GI50 [45]?
A: 1.65 µM

Q: What about the TGI [45] of the same molecule?
A: 5.74 µM

Q: And the GI50 [46]?
A: 1.68 µM

Q: And the TGI [46]?
A: 6.39 µM

Q: And the GI50 [47]?
A: 2.36 µM

Q: What about the TGI [47] of the same molecule?
A: 9.57 µM

Q: And the GI50 [48]?
A: 6.39 µM

Q: And the TGI [48]?
A: 12.8 µM

Q: What about the GI50 [49] of the same molecule?
A: 0.934 µM

Q: And the TGI [49]?
A: 1.83 µM

Q: What about the GI50 [50] of the same molecule?
A: 1.52 µM

Q: What about the TGI [50] of the same molecule?
A: 50 µM

Q: What about the GI50 [51] of the same molecule?
A: 1.04 µM

Q: What about the TGI [51] of the same molecule?
A: 2.19 µM

Q: What about the GI50 [52] of the same molecule?
A: 1.06 µM

Q: And the TGI [52]?
A: 2.57 µM

Q: What about the GI50 [53] of the same molecule?
A: 2.26 µM

Q: What about the TGI [53] of the same molecule?
A: 8.57 µM

Q: What about the GI50 [54] of the same molecule?
A: 9.96 µM

Q: What about the TGI [54] of the same molecule?
A: 19.5 µM

Q: And the GI50 [55]?
A: 1.59 µM

Q: And the TGI [55]?
A: 6.15 µM

Q: And the GI50 [56]?
A: 8.96 µM

Q: And the TGI [56]?
A: 17 µM

Q: What about the GI50 [57] of the same molecule?
A: 0.892 µM

Q: And the TGI [57]?
A: 1.75 µM

Q: And the GI50 [58]?
A: 1.18 µM

Q: And the TGI [58]?
A: 3 µM

Q: `CCCCCCNc1n[nH]c(=O)c2c1nnn2Cc1ccccc1` was tested. Which TGI [1] did it give?
A: > 100 µM

Q: What about the TGI [2] of the same molecule?
A: > 100 µM

Q: And the TGI [3]?
A: > 100 µM

Q: And the TGI [4]?
A: > 100 µM

Q: And the TGI [5]?
A: > 100 µM

Q: What about the TGI [6] of the same molecule?
A: > 100 µM

Q: What about the TGI [8] of the same molecule?
A: > 100 µM

Q: And the TGI [9]?
A: > 100 µM

Q: What about the TGI [10] of the same molecule?
A: > 100 µM

Q: What about the TGI [11] of the same molecule?
A: > 100 µM

Q: What about the TGI [12] of the same molecule?
A: > 100 µM

Q: What about the TGI [13] of the same molecule?
A: > 100 µM

Q: What about the TGI [14] of the same molecule?
A: > 100 µM

Q: What about the TGI [15] of the same molecule?
A: > 100 µM

Q: And the TGI [16]?
A: > 100 µM

Q: What about the TGI [17] of the same molecule?
A: > 100 µM

Q: What about the TGI [18] of the same molecule?
A: > 100 µM

Q: What about the TGI [19] of the same molecule?
A: > 100 µM

Q: What about the TGI [20] of the same molecule?
A: > 100 µM

Q: And the TGI [21]?
A: > 100 µM

Q: And the TGI [22]?
A: > 100 µM

Q: What about the TGI [24] of the same molecule?
A: > 100 µM

Q: And the TGI [25]?
A: > 100 µM

Q: And the TGI [26]?
A: > 100 µM

Q: And the TGI [27]?
A: > 100 µM

Q: And the TGI [28]?
A: > 100 µM

Q: And the TGI [29]?
A: > 100 µM

Q: What about the TGI [30] of the same molecule?
A: > 100 µM

Q: What about the TGI [31] of the same molecule?
A: > 100 µM

Q: And the TGI [32]?
A: > 100 µM

Q: And the TGI [33]?
A: > 100 µM

Q: And the TGI [34]?
A: > 100 µM

Q: And the TGI [37]?
A: > 100 µM

Q: And the TGI [38]?
A: > 100 µM

Q: What about the TGI [40] of the same molecule?
A: > 100 µM

Q: What about the TGI [41] of the same molecule?
A: > 100 µM

Q: And the TGI [43]?
A: > 100 µM

Q: What about the TGI [45] of the same molecule?
A: > 100 µM

Q: And the TGI [47]?
A: > 100 µM

Q: What about the TGI [49] of the same molecule?
A: > 100 µM

Q: What about the TGI [50] of the same molecule?
A: > 100 µM

Q: What about the TGI [51] of the same molecule?
A: > 100 µM

Q: And the TGI [52]?
A: > 100 µM

Q: And the TGI [53]?
A: > 100 µM

Q: And the TGI [59]?
A: > 100 µM

Q: And the TGI [58]?
A: > 100 µM
